Columns and labels:
Assay type in all cases: functional
[1] = Cytotoxicity against human CEM13 cells assessed as cell death after 72 hrs by MTT assay
[2] = test system: U-937; test: Cytotoxicity against human U937 cells assessed as cell death after 72 hrs by MTT assay
[3] = test system: MT4; test: Cytotoxicity against human MT4 cells assessed as cell death after 72 hrs by MTT assay

SMILES	CTD50 [1]	CTD50 [2]	CTD50 [3]
CC(C)C1(N=[N+]=[N-])Oc2cc3oc(=O)ccc3cc2C1=O (configuration not stated)	49 µM	53 µM	50 µM
CC(C)C1(N=[N+]=[N-])Oc2c(cc3ccc(=O)oc3c2CN2CCN(C)CC2)C1=O (configuration not stated)	58 µM	45 µM	62 µM
CC(C)C1(n2cc(-c3ccccc3)nn2)Oc2cc3oc(=O)ccc3cc2C1=O (configuration not stated)	51 µM	31 µM	70 µM
COc1ccc(-c2cn(C3(C(C)C)Oc4cc5oc(=O)ccc5cc4C3=O)nn2)c(OC)c1OC (configuration not stated)	32 µM	45 µM	27 µM
COc1cc(-c2cn(C3(C(C)C)Oc4cc5oc(=O)ccc5cc4C3=O)nn2)ccc1OCc1ccccc1 (configuration not stated)	25 µM	28 µM	28 µM
CC(C)C1(n2cc(-c3ccc4c(c3)OCCO4)nn2)Oc2cc3oc(=O)ccc3cc2C1=O (configuration not stated)	15 µM	8 µM	11 µM
CC(C)C1(n2cc(-c3cc([N+](=O)[O-])ccc3O)nn2)Oc2cc3oc(=O)ccc3cc2C1=O (configuration not stated)	21 µM	20 µM	11 µM
CC(C)C1(n2cc(CNC(=O)c3cc(O)cc(O)c3)nn2)Oc2cc3oc(=O)ccc3cc2C1=O (configuration not stated)	16 µM	23 µM	22 µM
COc1cc(C(=O)NCc2cn(C3(C(C)C)Oc4cc5oc(=O)ccc5cc4C3=O)nn2)ccc1O (configuration not stated)	9 µM	8 µM	10 µM
COc1cc(OC)cc(C(=O)NCc2cn(C3(C(C)C)Oc4cc5oc(=O)ccc5cc4C3=O)nn2)c1 (configuration not stated)	18 µM	45 µM	19 µM
CC(C)C1(n2cc(CNC(=O)c3cc(O)c(O)c(O)c3)nn2)Oc2cc3oc(=O)ccc3cc2C1=O (configuration not stated)	11 µM	20 µM	12 µM
CC(C)C1(n2cc(CNC(=O)c3ccc(N)cc3O)nn2)Oc2cc3oc(=O)ccc3cc2C1=O (configuration not stated)	17 µM	24 µM	13 µM
COc1ccc(/C=C/C(=O)NCc2cn(C3(C(C)C)Oc4cc5oc(=O)ccc5cc4C3=O)nn2)c(OC)c1 (configuration not stated)	30 µM	25 µM	22 µM
CC(C)C1(n2cc(-c3ccccc3)nn2)Oc2c(cc3ccc(=O)oc3c2CN2CCN(C)CC2)C1=O (configuration not stated)	32 µM	25 µM	33 µM
CC(C)C1(n2cc(-c3ccc4c(c3)OCCO4)nn2)Oc2c(cc3ccc(=O)oc3c2CN2CCN(C)CC2)C1=O (configuration not stated)	10 µM	10 µM	13 µM
CC(C)C1(n2cc(-c3cc([N+](=O)[O-])ccc3O)nn2)Oc2c(cc3ccc(=O)oc3c2CN2CCN(C)CC2)C1=O (configuration not stated)	11 µM	17 µM	11 µM
COc1ccc(/C=C/C(=O)NCc2cn(C3(C(C)C)Oc4c(cc5ccc(=O)oc5c4CN4CCN(C)CC4)C3=O)nn2)c(OC)c1 (configuration not stated)	16 µM	16 µM	13 µM
COc1cccc2c1C(=O)c1c(O)c3c(c(O)c1C2=O)C[C@@](O)(C(=O)CO)C[C@@H]3O[C@H]1C[C@H](N)[C@H](O)[C@H](C)O1 [DOXORUBICIN]	7.4 µM	0.2 µM	3.4 µM
COc1c(C(C)C)oc2cc3oc(=O)ccc3cc12 [PEUCEDANIN]	81 µM	58 µM	67 µM

Reference: ChEMBL document CHEMBL3596170, “Synthesis of 1H-1,2,3-triazole linked aryl(arylamidomethyl) - dihydrofurocoumarin hybrids and analysis of their cytotoxicity” (2015)
